The nature of this data set: in vitro. The conditions noted are these: human, hela cells, % viability.

With `CN(Cc1nc2ccccc2c(=O)[nH]1)Cc1cc2c(cc1Br)OCCO2` [CBK296715], the viability at 28.5 h, 10 µM is 108%.
As for `CCN(CC(=O)Nc1ccc2c(c1)OCCO2)S(=O)(=O)c1ccsc1C(=O)O` [CBK296717], the figure is 95.5%.
To `CC(c1ccccc1)N(C)C(=O)Cn1c(-c2cccs2)n[nH]c1=S` (stereo not shown) [CBK296718] belongs 95.6%.
On to `CN(CCOc1ccc(Cl)cc1)C(=O)COc1cc2ccccc2cc1C(=O)O` [CBK296720], for which the viability at 28.5 h, 10 µM was determined as 108%.
As for `COc1cc(C=CC(=O)O)ccc1OCC(=O)NCC(C)C` [CBK296721], the figure is 107%.
To `CC(Oc1ccc(Br)cc1)C(=O)Nc1nc2c(s1)CCC2` (stereo not shown) [CBK296723] belongs 84.8%.
As for `O=C(Nc1nccs1)C1CCCN(C(=O)c2ccco2)C1` (stereo not shown) [CBK296725], the figure is 98.7%; as for `O=C(O)c1cc(NS(=O)(=O)c2ccc3c(c2)OCCCO3)ccc1F` [CBK296731], 104%; as for `CCCCn1c(SCC(=O)N(C)Cc2cnn(-c3ccccc3)c2)n[nH]c1=O` [CBK296732], 106%.
Regarding `Cc1cccc(-c2n[nH]c(=S)n2CCC(=O)Nc2ccc(N3CCCC3=O)c(C)c2)c1` [CBK296733], the viability at 28.5 h, 10 µM came to 89.1%.
On to `COc1ccc(CC(=O)Nc2cccc(OC(F)(F)F)c2)cc1OC` [CBK296734], for which the viability at 28.5 h, 10 µM was determined as 88.1%.
Turning to `CCOc1ccc(-c2nc(CSc3n[nH]c(=O)n3CCc3ccccc3)cs2)cc1` [CBK296735], the viability at 28.5 h, 10 µM worked out at 94.7%.
As for `CCCCn1c(SCC(=O)NCC2(c3ccc4c(c3)OCCO4)CCCC2)n[nH]c1=O` [CBK296736], the figure is 99.6%; as for `CSCc1nnc(SCc2ccccc2Oc2ccccc2)o1` [CBK296743], 99.2%; as for `CC(=O)c1cc(C(=O)NCc2ccc(C)cc2)n(C)c1` [CBK296750], 85.1%.
As for `CC(C)c1cccc(N2CC(C(=O)Nc3cc(S(C)(=O)=O)ccc3F)CC2=O)c1` (stereo not shown) [CBK296751], the figure is 96.8%.
As for `CC(=O)Nc1ccc(NC(=O)Cc2n[nH]c(=S)n2Cc2ccccc2)cc1` [CBK296754], the figure is 91.1%.
Turning to `Cc1noc2nc(-c3ccccc3F)cc(C(=O)N3CCCC3c3nnc4ccccn34)c12` (stereo not shown) [CBK296756], the viability at 28.5 h, 10 µM came to 93.2%.
On to `CCNc1nc2ccccn2c(=O)c1C=C1SC(=S)N(CCCC(=O)O)C1=O` [CBK296757], for which the viability at 28.5 h, 10 µM worked out at 87.9%.
Turning to `COC(=O)c1ccc(NC(=O)c2oc3ccc(Br)cc3c2C)cc1` [CBK296758], the viability at 28.5 h, 10 µM amounted to 95.7%.
To `O=S(=O)(Nc1ccc(N2CCOCC2)cc1)c1cccc(OC(F)(F)F)c1` [CBK296759] belongs 95.1%; to `COc1ccc(CNC(=O)c2cc(O)nc3ccccc23)cc1OC` [CBK296763], 90.2%; to `O=C(Cn1cnc2ccc(F)cc2c1=O)N1Cc2ccccc2C(c2ccccc2)C1` (stereo not shown) [CBK296767], 95.1%.
In the case of `COc1cc2c(cc1OC)CN(S(=O)(=O)c1cc(C(=O)O)ccc1Cl)CC2` [CBK296923], the viability at 28.5 h, 10 µM amounted to 96%.
As for `CC(Sc1nc(N)cc(N)n1)C(=O)c1ccc(F)c(F)c1` (stereo not shown) [CBK296928], the figure is 94.7%; as for `CCOC(=O)c1c(-c2ccc(Cl)cc2)csc1NC(=O)CCCC(=O)O` [CBK296929], 91%.
To `O=C(O)CCCC(=O)NCCc1ccc(Cl)cc1Cl` [CBK296930] belongs 88.8%; to `CCOC(=O)c1ccc(NC(=O)Cc2c(C(=O)O)nnn2-c2cccc(C(F)(F)F)c2)cc1` [CBK296932], 106%; to `O=C(Cn1nnc2ccccc2c1=O)NC(Cc1ccccc1)c1ccccc1` (stereo not shown) [CBK296933], 96.6%.
As for `CCOc1ncccc1C(=O)N(Cc1nnc(-c2ccc(Cl)cc2)o1)C1CC1` [CBK296934], the figure is 96.3%; as for `CC(C)c1ccc(S(=O)(=O)N2CCN(c3ncnc4c3oc3ccccc34)CC2)cc1` [CBK296936], 84.9%; as for `O=C(CCc1nc2ccccc2c(=O)[nH]1)N1CCN(Cc2ccc(Cl)s2)CC1` [CBK296937], 83.9%.
For the compound `NC(=O)C1CCN(C(=O)c2cc3c(=O)n4ccccc4nc3s2)CC1` [CBK296938], the viability at 28.5 h, 10 µM is 89.9%.
In the case of `COC(=O)c1c(COC(=O)c2cnc(Cl)c(Cl)c2)nc2ccccc2c1C` [CBK296940], the viability at 28.5 h, 10 µM came out at 102%.
As for `COc1cc(C=Cc2cc(C(=O)O)c3ccccc3n2)cc(Cl)c1OC(C)C` [CBK296941], the viability at 28.5 h, 10 µM was determined as 93.7%.
In the case of `Cc1nn(Cc2ccccc2)c(Cl)c1C=Cc1cc(C(=O)O)c2ccccc2n1` [CBK296942], the viability at 28.5 h, 10 µM was determined as 95.4%.
`CCN(c1ccccc1)S(=O)(=O)c1ccc(C(=O)NC(C)c2ccc3c(c2)OCCO3)cc1` (stereo not shown) [CBK296945]: the viability at 28.5 h, 10 µM was 83.5%.
With `COc1ccc(S(=O)(=O)Nc2cc(C(=O)O)ccc2C)cc1NC(C)=O` [CBK296946], the viability at 28.5 h, 10 µM was 93.4%.
To `O=C(CCn1c(CO)nc2ccccc21)c1ccccc1` [CBK296947] belongs 102%.
As to `CC(C)NS(=O)(=O)c1ccc(NS(=O)(=O)c2cc(C(=O)O)ccc2Cl)cc1` [CBK296951], the viability at 28.5 h, 10 µM was 99.5%.
To `CCOc1cc(C=Cc2cc(C(=O)O)c3ccccc3n2)ccc1OC(F)F` [CBK296952] belongs 86.3%.
For `COc1ccc(C=Cc2cc(C(=O)O)c3ccccc3n2)cc1OC(F)F` [CBK296953], the viability at 28.5 h, 10 µM is 85.9%.
For `Cc1cc(C)cc(N(CCC#N)C(=O)CSc2nnc[nH]2)c1` [CBK296955], the viability at 28.5 h, 10 µM is 101%.
To `O=c1cc(CO)oc(C(Nc2ccccn2)c2ccsc2)c1O` (stereo not shown) [CBK296956] belongs 106%; to `Cc1sc(NC(=O)c2ccccc2)c(C(Nc2ccccn2)c2ccc(F)cc2)c1C` (stereo not shown) [CBK296957], 89.7%.
As for `CCC(C)NC(=O)CSc1nnc(-c2cccs2)n1CC` (stereo not shown) [CBK296960], the figure is 86.3%; as for `CC(=O)c1ccc(N2CCN(S(=O)(=O)c3ccc(O)c(C(=O)O)c3)CC2)cc1` [CBK296961], 94%; as for `CCN(CC)CCNC(=O)c1ccc(NS(=O)(=O)c2cc(C(=O)O)ccc2OC)cc1` [CBK296962], 103%.
To `O=C(CSc1n[nH]c(=O)n1Cc1ccccc1)NCc1ccc(-c2ccc(Cl)cc2)o1` [CBK296963] belongs 102%.
`OCCN1CCN(C(c2cccs2)c2ccc3cccnc3c2O)CC1` (stereo not shown) [CBK296964]: the viability at 28.5 h, 10 µM was found to be 76.7%.
As for `CC(Sc1nnc(-c2ccc(Cl)cc2)n1CC(=O)O)C(=O)Nc1ccnn1C(C)C` (stereo not shown) [CBK296970], the figure is 96.9%; as for `O=C(O)C1CCN(C(=O)CSc2nnc(-c3ccccc3F)n2C2CCCC2)CC1` [CBK296971], 115%; as for `Cc1nn(CCC#N)c2nc(-c3ccc(F)cc3)cc(C(=O)O)c12` [CBK296974], 94.7%.
To `CCOC(=O)N1CCN(S(=O)(=O)c2cc(C(=O)O)c(Cl)cc2Cl)CC1` [CBK296975] belongs 96.2%; to `CCCn1c(SCC(=O)NCCN2C(=O)CSC2=O)n[nH]c1=O` [CBK296976], 89.2%.
To `Cc1cnc(C(=O)OCc2cc(=O)n3ccsc3n2)cn1` [CBK296978] belongs 95.5%; to `CSCCC(C(=O)O)N1C(=O)C(=Cc2ccc(-c3cc(Cl)cc(Cl)c3)o2)SC1=S` (stereo not shown) [CBK296984], 87.3%.
Consider `COCCOC(=O)C1=C(C)N(c2ccc(C(=O)O)cc2)C(=O)NC1c1ccccc1Cl` (stereo not shown) [CBK296986], for which the viability at 28.5 h, 10 µM is 97%.
As for `Cc1ccc(Nc2nc(Cn3nc(C(=O)O)c4ccccc4c3=O)cs2)cc1` [CBK296989], the figure is 86.7%; as for `Cc1occc1-c1nnc(SC2CCCCN(C(=O)c3ccc(Cl)cc3)C2=O)n1C` (stereo not shown) [CBK296990], 97.9%; as for `O=C(O)CCNC(=O)c1ccc(NS(=O)(=O)c2ccc(C3CCCCC3)cc2)cc1` [CBK296991], 96.1%.
To `CCOc1ccc(Oc2ccc(C(F)(F)F)cc2NC(=O)CCCC(=O)O)cc1` [CBK296993] belongs 90.7%; to `O=C(Nc1ccc(-c2ccccc2)cc1)c1cccc(S(=O)(=O)NCC2CCCO2)c1` (stereo not shown) [CBK296994], 95.7%.
For `Cc1cccn2cc(CSc3nnc4[nH]c5ccccc5n34)nc12` [CBK296996], the viability at 28.5 h, 10 µM turned out to be 94.1%.
As for `Cc1cc(C(=O)CSc2nnnn2-c2ccc(O)cc2)c(C)n1Cc1ccc(F)cc1` [CBK297081], the figure is 98.8%.
To `Cc1nc2ccccc2n1CCNC(=O)c1ccccc1SCc1ccc(C#N)cc1` [CBK297082] belongs 106%; to `COc1cc(NC(=O)C2CCN(S(=O)(=O)c3cccs3)CC2)c(Cl)cc1C(=O)O` [CBK297085], 99.7%; to `CCn1c(SCc2cc(Cl)c3c(c2)OCCO3)nnc1-c1ccc(OC)cc1` [CBK297086], 88.9%.
With `COc1ccc(CN(C)C(=O)CCc2c(C)nc3c(cnn3C(C)C)c2C)cc1` [CBK297087], the viability at 28.5 h, 10 µM is 80.6%.
In the case of `COc1ccc(C(=O)CSc2nnc(-c3ccccc3)c3ccccc23)cc1OC` [CBK297088], the viability at 28.5 h, 10 µM was determined as 93.3%.
Turning to `CC(C)(C)c1ccc(S(=O)(=O)N2CCN(CCC(=O)O)CC2)cc1` [CBK297089], the viability at 28.5 h, 10 µM turned out to be 103%.
As for `O=C(Nc1cccc(-c2nnc3n2CCCCC3)c1)[C@@H]1CCCN1C(=O)c1cccs1` [CBK297090], the viability at 28.5 h, 10 µM came out at 109%.
To `CN(c1ccccc1)S(=O)(=O)c1cccc(NC(=O)c2ccc(=O)[nH]n2)c1` [CBK297091] belongs 96.3%; to `Cc1nnc(Sc2nc(CN3CCOCC3)nc3scc(-c4cccs4)c23)n1C` [CBK297092], 103%; to `COc1cc(C)c(CN2CCN(S(=O)(=O)c3cc(C(=O)O)cs3)CC2)cc1OC` [CBK297093], 97.2%.
`CC1CCN(S(=O)(=O)c2ccc(C(=O)N3CCCCC3C(=O)O)cc2)CC1` (stereo not shown) [CBK297094]: the viability at 28.5 h, 10 µM was 89.8%.

Usually viability stands for a read-out of living cells in per cent, often relative to untreated cells.

These data come from article PMC12040169 (PLOS Biology, 2025).
